Assays:
[1] = tested on: PGI2 synthetase; conditions: pre-incubation with pig aorta microsomes; result in words; cited from earlier work
[2] = molecular target: T1, thromboxane A2 synthetase (Homo sapiens, UniProt P24557); assay: Thromboxane A2 (T×A2) synthetase inhibition (T×B2 production, radioimmunoassay); type: biochemical; conditions: human platelet microsomes, in vitro; read-out: T×A2 synthetase inhibitory activity: IC50
T1 construct: Indomethacin pretreated human platelet microsomes; from tissue; host or cells: human platelets (microsomes)
T1 sequence (P24557 1-533): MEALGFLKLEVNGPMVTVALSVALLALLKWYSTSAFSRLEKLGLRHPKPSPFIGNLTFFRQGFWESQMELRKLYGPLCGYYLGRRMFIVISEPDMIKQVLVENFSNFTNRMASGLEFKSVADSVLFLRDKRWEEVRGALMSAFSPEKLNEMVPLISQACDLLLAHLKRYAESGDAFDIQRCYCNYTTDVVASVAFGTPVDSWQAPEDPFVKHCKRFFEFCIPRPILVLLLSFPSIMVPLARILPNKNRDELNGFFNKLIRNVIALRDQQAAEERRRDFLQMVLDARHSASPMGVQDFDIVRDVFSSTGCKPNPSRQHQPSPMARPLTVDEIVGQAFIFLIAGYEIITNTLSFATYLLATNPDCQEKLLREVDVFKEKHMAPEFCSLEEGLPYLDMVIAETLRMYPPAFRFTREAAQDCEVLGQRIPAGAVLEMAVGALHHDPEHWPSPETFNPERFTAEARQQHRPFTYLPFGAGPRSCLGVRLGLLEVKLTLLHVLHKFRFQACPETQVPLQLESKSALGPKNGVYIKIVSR
Experimental: Ram seminal vesicle microsomes (Biochemistry, 1971, 10, 2372) are incubated with arachidonic acid (100.0 μM) for 1.0 minute at 22° C. to produce endoperoxide (PGH2). Aliquots of PGH2 are incubated for 30 seconds at 22° C. with pig aorta microsomes (Nature, 1976, 263, 663) and the reaction terminated with five volumes of ethanol. PGI2 production is assessed by measuring its stable breakdown product 6-keto-PGF1α, using a specific radioimmunoassay.
Indomethacin pretreated human platelet microsomes (Science 1976, 193, 163) are incubated for 2 minutes at 0° C. with PGH2 (produced as in 1) and the reaction terminated with 5 volumes of ethanol. T×A2 production is assessed by measuring its stable metabolite T×B2,using a specific radioimmunoassay.
The test compound is pre-incubated with enzyme for 5 minutes, and its ability to inhibit the thromboxane A2 synthetase enzyme is measured as the reduction of T×A2 (T×B2) production.

[3] = molecular target: T2, thromboxane A2 receptor (Rattus norvegicus, UniProt P34978); assay: Thromboxane A2 receptor antagonism (U-46619 contraction of rat aortic strips); type: cell-based; conditions: agonist U-46619, in vitro, read-out: T×A2 antagonist activity: pA2 (converted)
T2 construct: Spirally cut rat aortic strips; from tissue; host or cells: rat aorta (spirally cut strips)
T2 sequence (P34978 1-341): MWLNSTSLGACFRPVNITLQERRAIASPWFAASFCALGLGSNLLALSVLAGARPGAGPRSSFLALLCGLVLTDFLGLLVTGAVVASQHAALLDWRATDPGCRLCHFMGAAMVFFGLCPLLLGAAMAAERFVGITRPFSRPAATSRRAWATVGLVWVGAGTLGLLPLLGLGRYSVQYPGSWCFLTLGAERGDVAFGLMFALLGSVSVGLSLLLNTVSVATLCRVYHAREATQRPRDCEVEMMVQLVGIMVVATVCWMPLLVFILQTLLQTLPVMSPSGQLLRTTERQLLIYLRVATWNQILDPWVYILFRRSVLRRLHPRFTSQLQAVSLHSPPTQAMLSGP
Experimental: Spirally cut rat aortic strips, mounted for isometric tension recording in 20 ml organ baths, are bathed in Krebs-bicarbonate solution at 37° C. Following an incubation period of 2 hours under 1 gram resting tension, the tissues are pre-treated with U-46619 (a thromboxane A2 receptor agonist) for 10 minutes, then washed and the tissues allowed to equilibrate for a further 1 hour. Cumulative doses of U-46619 over the range 1 nM-100 nM are sequentially included in the bathing fluid and increases in the tissue tension noted.
The test compounds are incubated with the tissue for 15 minutes prior to repeating the cumulative dosing of U-46619 and the ability of the compound to antagonize the thromboxane A2 receptor is determined from the dose-response curves for U-46619 in the presence of varied concentrations of the test compound.

Compound | inhibition of PGI2 production by PGI2 synthetase [1] | IC50 [2] [nM] | Kb [3] [nM]
CCCCCC(/C=C/C=C\C/C=C\C/C=C\CCCC(=O)O)OO (stereo not shown) [15-hydroperoxyarachidonic acid] | completely inhibited | – | –
O=C(O)CCc1cc(CCNS(=O)(=O)c2ccc(Cl)cc2)cc(Cc2cccnc2)c1 [Example 48, 3-{3-[2-(4-Chlorophenylsulphonylamino)ethyl]-5-(3-pyridylmethyl)phenyl}propanoic acid] | – | 39 | 0.407
O=C(O)CCc1cc(CCNS(=O)(=O)c2ccc(Br)cc2)cc(Cc2cccnc2)c1 [Example 49, 3-{3-[2-(4-Bromophenylsulphonylamino)ethyl]-5-(3-pyridylmethyl)phenyl}propanoic acid] | – | 49 | 0.363
O=C(O)CCc1cc(CCNS(=O)(=O)c2ccccc2)cc(Oc2cccnc2)c1 [Example 61, 3-[3(2-Phenylsulphonylamino)ethyl-5-(3-pyridyloxy)phenyl]propanoic acid] | – | 38 | 0.871
O=C(O)CCc1cc(CCNS(=O)(=O)c2ccc(Cl)cc2)cc(Oc2cccnc2)c1 [Example 62, 3-{3-[2-(4-Chlorophenylsulphonylamino)ethyl]-5-(3-pyridyloxy)phenyl}propanoic acid] | – | 37 | 0.398
CC(O)(c1cccnc1)c1cc(CCNS(=O)(=O)c2ccc(Cl)cc2)cc(CCC(=O)O)c1 (stereo not shown) [Example 67] | – | 61 | 0.851
C=C(c1cccnc1)c1cc(CCNS(=O)(=O)c2ccccc2)cc(CCC(=O)O)c1 [Example 82, 3-{3-(2-Phenylsulphonylamino)ethyl-5-[1-(3-pyridyl)ethenyl]phenyl}propanoic acid] | – | 50 | 0.759
C=C(c1cccnc1)c1cc(CCNS(=O)(=O)c2ccc(Cl)cc2)cc(CCC(=O)O)c1 [Example 83, 3-{3-[2-(4-Chlorophenylsulphonylamino)ethyl]-5-[1-(3-pyridyl)ethenyl]phenyl}propanoic acid] | – | 53 | 0.0977
CC(c1cccnc1)c1cc(CCNS(=O)(=O)c2ccccc2)cc(CCC(=O)O)c1 (stereo not shown) [Example 84, 3-{3-(2-Phenylsulphonylamino)ethyl-5-[1-(3-pyridyl)ethyl]phenyl}propanoic acid] | – | 44 | 0.186
CC(c1cccnc1)c1cc(CCNS(=O)(=O)c2ccc(Cl)cc2)cc(CCC(=O)O)c1 (stereo not shown) [Example 85, 3-{3-[2-(4-Chlorophenylsulphonylamino)ethyl]-5-[1-(3-pyridyl)ethyl]phenyl}propanoic acid] | – | 38 | 0.0692

From patent US5705523A, “Pyridine- and imidazole-derived agents for cardiovascular diseases” (Pfizer Inc., priority 1991, dated 1998)
